This note sets out measurements from article PMC11266677, “Vitamin B5 metabolism is essential for vacuolar and mitochondrial functions and drug detoxification in fungi” (Communications Biology, 2024).

The structures appear in SMILES notation.

Test [1] deals with T1, Acs1 (acetyl CoA synthetase) (Saccharomyces cerevisiae, UniProt Q01574).
T1 construct: purified S. cerevisiae acetyl CoA synthetase (Sigma, A1765)
The test is described as follows: hydroxylamine-coupled acetyl CoA synthetase assay (acethydroxamic acid, OD540). The test is classed as biochemical.

Test [2] deals with T1, Acs1 (acetyl CoA synthetase). As to the kind of experiment: hydroxylamine-coupled acetyl CoA synthetase assay; […] inhibition at […]. The test is classed as biochemical.

T1 sequence (Q01574 whole entry): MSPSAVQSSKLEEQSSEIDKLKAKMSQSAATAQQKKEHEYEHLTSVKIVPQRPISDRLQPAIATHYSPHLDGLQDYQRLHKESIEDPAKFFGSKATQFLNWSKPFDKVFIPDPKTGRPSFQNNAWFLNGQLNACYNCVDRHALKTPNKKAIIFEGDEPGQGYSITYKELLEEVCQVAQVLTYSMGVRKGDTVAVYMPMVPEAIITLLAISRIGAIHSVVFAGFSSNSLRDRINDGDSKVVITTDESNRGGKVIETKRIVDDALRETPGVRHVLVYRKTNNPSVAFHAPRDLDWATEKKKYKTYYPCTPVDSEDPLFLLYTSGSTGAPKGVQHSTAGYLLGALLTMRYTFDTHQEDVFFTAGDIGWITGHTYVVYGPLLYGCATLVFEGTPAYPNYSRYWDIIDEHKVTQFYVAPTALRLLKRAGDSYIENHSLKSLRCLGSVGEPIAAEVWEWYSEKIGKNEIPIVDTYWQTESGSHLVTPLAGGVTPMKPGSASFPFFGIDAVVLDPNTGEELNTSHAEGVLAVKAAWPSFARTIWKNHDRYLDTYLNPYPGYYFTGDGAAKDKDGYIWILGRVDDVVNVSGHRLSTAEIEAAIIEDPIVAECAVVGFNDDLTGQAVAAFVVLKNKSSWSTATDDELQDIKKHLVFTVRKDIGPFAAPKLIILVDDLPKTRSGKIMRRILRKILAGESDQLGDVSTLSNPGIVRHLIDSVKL

The IC50 is the concentration that gives 50% inhibition. The molecule `NCC(=O)Nc1ccc(-n2nc(C(F)(F)F)cc2-c2ccc3c(ccc4ccccc43)c2)cc1` [AR-12] showed an IC50 in test [1] of about 18 µM. For orientation: inhibition means the drop in the measured response relative to a control, in per cent. A higher inhibition goes with a response far below the control. For `CC(C)c1ccc(CC(=O)N2CCN(c3ccc(C#N)nn3)CC2)cc1` [PZ-2891], 18.8 µM produced 32.7% inhibition in test [2].
